Reference: patent US20250328351A1, “CARBONIC ANHYDRASE INHIBITORS AND ANTIBIOTICS AGAINST MULTIDRUG RESISTANT BACTERIA” (Purdue Research Foundation, priority 2018, published 2025)
Values after ≈ are worked out from the molar mass of the structure shown. Read-outs that look alike come from different tables or passages of the source. Blank lines part the entries; values can stand above or below the compound they belong to.

What was measured:
[1] = system: Enterococcus faecalis S613 HM-334; test: MIC, broth microdilution (CLSI); format: cell-based
Protocol: (§1) The minimum inhibitory concentrations (MICs) of the compounds and control drugs were determined using the broth microdilution method, according to guidelines outlined by the Clinical and Laboratory Standards Institute (CLSI). Enterococci strains were grown aerobically overnight on tryptone soya agar plates at 37° C., afterwards a bacterial solution equivalent to 0.5 McFarland standard was prepared and diluted in tryptone soy broth (TSB) to achieve a bacterial concentration of about 5×10^5 CFU/mL and seeded in 96-well well plates. Compounds and control drugs were added in the first row of the 96-well plates and serially diluted along the plates. Plates were then incubated aerobically at 37° C. for 18-20 hours. MICs reported in Table 1 are the minimum concentration of the compounds/control drugs that could inhibit completely the visual growth of the bacteria.
(§2) The minimum inhibitory concentrations (MICs) of CAIs were tested against clinical isolates of vancomycin sensitive and vancomycin resistant Enterococci strains as per the guidelines provided by the Clinical and Laboratory Standards Institute (CLSI). The selected strains of Enterococci were streaked on Tryptic Soy Agar (TSA) plates and let grow for 24 hours at 37° C. Afterwards, a bacterial solution equivalent to 0.5 McFarland standard was prepared and diluted in tryptone soy broth (TSB) or brain heart infusion broth (BHIB) to achieve a bacterial concentration of about 5×10^5 CFU/mL and seeded in 96-well well plates. Compounds and control drugs were added in the first row of the 96-well plates and serially diluted along the plates. Plates were then incubated aerobically at 37° C. for 18-20 hours. MICs reported in Table 5 are the minimum concentration of the compounds/control drugs that could inhibit completely the visual growth of the bacteria.
The minimum inhibitory concentrations (MICs) of CAIs were tested against vancomycin resistant Enterococcus faecalis—S613 HM 334 strain as per the guidelines provided by the Clinical and Laboratory Standards Institute (CLSI). The selected strain was streaked on Tryptic Soy Agar (TSA) plate and let grow for 24 hours at 37° C. […] Compounds and control drugs were added in the first row of the 96-well plates and serially diluted along the plates. Plates were then incubated aerobically at 37° C. for 18-20 hours. MICs reported in table (6) are the minimum concentration of the compounds/control drugs that could inhibit completely the visual growth of the bacteria.

[2] = system: Enterococcus faecium E417 - HM-965; test: MIC, broth microdilution (CLSI); format: cell-based
Protocol: as §1, §2

[3] = system: Enterococcus faecium Patient #2-1 - NR-31909; test: MIC, broth microdilution (CLSI); format: cell-based; conditions: Table 5
Protocol: as §1, §2

[4] = system: Enterococcus fecalis Strain SF 24397 NR31970; test: MIC, broth microdilution (CLSI); format: cell-based; conditions: Table 5
Protocol: as §1, §2

[5] = system: Bacteroides fragilis CL07T00C01 HM-709; test: MIC against human normal gut microbiota; format: cell-based; conditions: Table 3, BHIS broth, anaerobic, 48 hours, read-out: MIC
Protocol: (§3) Three different bacterial strains were used in this experiment; Bifidobacterium (anaerobic Gram positive bacteria), Bacteroides (anaerobic Gram negative bacteria) and Lactobacillus (microaerophilic Gram positive bacteria). Bifidobacterium and Bacteroides were first grown for 48 hours at 37° C., anaerobically using brain heart infusion supplemented (BHIS) agar (Brain heart infusion agar supplemented with hemin, vitamin K and L-cysteine). Lactobacillus was cultivated on MRS agar and incubated in presence of 5% CO2 for 48 hours at 37° C. Each bacterium was suspended in phosphate buffered saline (PBS) to produce a suspension with optical density that matches 0.5 McFarland standard and diluted in brain heart infusion supplemented broth (for Bifidobacterium and Bacteroides) or in MRS broth (for Lactobacillus) to achieve bacterial concentration of approximately 5×10^5 CFU/ml. Bacteria were then seeded in 96-well plates containing serial dilutions of the compounds and incubated as mentioned previously for 48 hours.

[6] = system: Bifidobacterium breve JCP7499 HM 1120; test: MIC against human normal gut microbiota; format: cell-based; conditions: JCP7499HM1120, Table 3, BHIS broth, anaerobic, 48 hours, read-out: MIC
Protocol: as §3

[7] = system: Bacteroides dorei CL02T12C06 HM-719; test: MIC against human normal gut microbiota; format: cell-based; conditions: Phocaeicola dorei; Table 3; BHIS broth, anaerobic, 48 hours; read-out: MIC
Protocol: as §3

VERO cells = test: In vitro cytotoxicity, MTS assay; format: cell-based, monkey; conditions: concentration up to 128 μg/mL; two hours incubation
Protocol: Toxicity assessment: Compounds AS005H, AS005J, AS004B, AS005K, AS005A and 005D were assayed (at concentrations of 64 and 128 μg/mL) against a fibroblast-like monkey kidney cell line (VERO cell) to determine the potential toxic effect in vitro. Briefly, cells were cultured in Minimum Essential Medium (MEM) supplemented with 10% fetal bovine serum (FBS), 1 mM sodium pyruvate, and penicillin-streptomycin at 37° C. with CO2 (5%). Control cells received DMSO alone at a concentration equal to that in drug-treated cell samples. The cells were incubated with the compounds (in triplicate) in a 96-well plate at 37° C. with CO2 (5%) for two hours. The assay reagent MTS 3-(4,5-dimethylthiazol-2-yl)-5-(3-carboxymethoxyphenyl)-2-(4-sulfophenyl)-2H-tetrazolium) (Promega, Madison, WI, USA) was subsequently added and the plate was incubated for four hours. Absorbance readings (at OD490) were taken using a kinetic microplate reader (Molecular Devices, Sunnyvale, CA, USA). The quantity of viable cells after treatment with each compound was expressed as a percentage of the viability of DMSO-treated control cells (average of triplicate wells±standard deviation). The toxicity data was analyzed via a two-way ANOVA, with post hoc Dunnet's multiple comparisons test (P<0.05), utilizing GraphPad Prism 6.0 (GraphPad Software, La Jolla, CA).
Percent viable mammalian cells (measured as average absorbance ratio (test agent relative to DMSO) for cytotoxicity analysis of compounds AS005H, AS005J, AS004B, AS005K, AS005A and 005D (tested in triplicates) at 64 and 128 μg/mL against VERO cells using the MTS 3-(4,5-dimethylthiazol-2-yl)-5-(3-carboxymethoxyphenyl)-2-(4-sulfophenyl)-2H-tetrazolium) assay. Dimethyl sulfoxide (DMSO) was used as a negative control to determine a baseline measurement for the cytotoxic impact of each compound. The absorbance values represent an average of a minimum of three samples analyzed for each compound. Error bars represent standard deviation values for the absorbance values.

[8] = Enterococcus faecalis, S613HM334, Table 7, TSB, read-out: MIC
[9] = Enterococcus faecalis, S613HM334, Table 5, BHIB, read-out: MIC
[10] = Enterococcus faecalis, S613HM334, Table 5, TSB, read-out: MIC
[11] = Enterococcus faecalis, S613HM334, Table 6, TSB in presence of 4% human serum albumin, read-out: MIC
[12] = Enterococcus faecalis, S613HM334, Table 1, TSB, read-out: MIC

- MIC [1, 8]: 1 µg/mL (≈ 3.81 µM)
SMILES: NS(=O)(=O)c1nnc(NC(=O)C2CCC2)s1 [CAI0018, N-(5-Sulfamoyl-1,3,4-thiadiazol-2-yl)cyclobutanecarboxamide]

- MIC [1, 8]: > 128 µg/mL
SMILES: CC(=O)Nc1nnc(S(C)(=O)=O)s1 [CAI0025, N-(5-(Methylsulfonyl)-1,3,4-thiadiazol-2-yl)acetamide]

- MIC ([2]; Table 5, BHIB): 16 µg/mL (≈ 52.4 µM)
- MIC ([2]; Table 5, TSB): 1 µg/mL (≈ 3.28 µM)
- MIC ([3]; TSB): 2 µg/mL (≈ 6.55 µM)
- MIC ([4]; TSB): 16 µg/mL (≈ 52.4 µM)
- MIC ([1]; Table 5, TSB): 16 µg/mL (≈ 52.4 µM)
SMILES: NS(=O)(=O)c1cc(Cl)c(Cl)c(S(N)(=O)=O)c1 [Dichlophenamide, reference compound]

- MIC [1, 9]: > 128 µg/mL
- MIC [1, 10]: 1 µg/mL (≈ 3.87 µM)
- MIC [1, 11]: > 256 µg/mL
SMILES: CCOc1ccc2nc(S(N)(=O)=O)sc2c1 [Ethoxzolamide]

- MIC [1, 8]: 0.007 µg/mL (≈ 0.0282 µM)
SMILES: NS(=O)(=O)c1nnc(NC(=O)C2CC2)s1 [CAI0020, N-(5-Sulfamoyl-1,3,4-thiadiazol-2-yl)cyclopropanecarboxamide]

- MIC [1, 12]: 2 µg/mL (≈ 8.46 µM)
- MIC [1, 8]: 2 µg/mL (≈ 8.46 µM)
SMILES: CCC(=O)Nc1nnc(S(N)(=O)=O)s1 [CAI0009, N-(5-Sulfamoyl-1,3,4-thiadiazol-2-yl)propionamide]
- MIC [5]: > 64 µg/mL
- MIC [6]: > 64 µg/mL
- MIC [7]: > 64 µg/mL

- MIC [1, 8]: 0.015 µg/mL (≈ 0.0493 µM)
SMILES: NS(=O)(=O)c1nnc(NC(=O)CC2CCCCC2)s1 [CAI0029, 2-Cyclohexyl-N-(5-sulfamoyl-1,3,4-thiadiazol-2-yl)acetamide]

- MIC [1, 9]: > 128 µg/mL
- MIC [1, 10]: 2 µg/mL (≈ 5.21 µM)
- MIC [1, 11]: > 256 µg/mL
SMILES: CCN[C@H]1CN(CCCOC)S(=O)(=O)c2sc(S(N)(=O)=O)cc21 [Brinzolamide]

- MIC ([2]; Enterococcus faecium, E417HM965, Table 5, BHIB, read-out: MIC): 16 µg/mL (≈ 9.87 µM)
- MIC ([2]; Enterococcus faecium, E417HM965, Table 5, TSB, read-out: MIC): 4 µg/mL (≈ 2.47 µM)
- MIC ([3]; Enterococcus faecium, BHIB, read-out: MIC): 16 µg/mL (≈ 9.87 µM)
- MIC ([3]; Enterococcus faecium, TSB, read-out: MIC): 8 µg/mL (≈ 4.94 µM)
- MIC ([4]; Enterococcus, BHIB, read-out: MIC): 2 µg/mL (≈ 1.23 µM)
- MIC ([4]; Enterococcus, TSB, read-out: MIC): 1 µg/mL (≈ 0.617 µM)
- MIC [1, 9]: 2 µg/mL (≈ 1.23 µM)
- MIC [1, 10]: 1 µg/mL (≈ 0.617 µM)
- MIC [1, 11]: 16 µg/mL
SMILES: CCCCCCCCCC(=O)N[C@@H](Cc1c[nH]c2ccccc12)C(=O)N[C@H](CC(N)=O)C(=O)N[C@@H](CC(=O)O)C(=O)N[C@@H]1C(=O)NCC(=O)N[C@@H](CCCN)C(=O)N[C@@H](CC(=O)O)C(=O)N[C@H](C)C(=O)N[C@@H](CC(=O)O)C(=O)NCC(=O)N[C@H](CO)C(=O)N[C@@H]([C@H](C)CC(=O)O)C(=O)N[C@@H](CC(=O)c2ccccc2N)C(=O)O[C@@H]1C [Daptomycin]

SMILES: CCCC(=O)Nc1nnc(S(N)(=O)=O)s1 [CAI0013, N-(5-Sulfamoyl-1,3,4-thiadiazol-2-yl)butyramide]
- toxicity to VERO cells (percent viable cells, MTS) (VERO cells): non-toxic
- MIC [5]: > 64 µg/mL
- MIC [6]: > 64 µg/mL
- MIC [7]: > 64 µg/mL

- MIC [1, 8]: 0.5 µg/mL (≈ 1.81 µM)
SMILES: NS(=O)(=O)c1nnc(NC(=O)C2CCCC2)s1 [CAI0023, N-(5-Sulfamoyl-1,3,4-thiadiazol-2-yl)cyclopentanecarboxamide]

- MIC [1, 8]: 0.03 µg/mL (≈ 0.108 µM)
SMILES: CC(C)(C)CC(=O)Nc1nnc(S(N)(=O)=O)s1 [CAI0028, 3,3-Dimethyl-N-(5-sulfamoyl-1,3,4-thiadiazol-2-yl)butanamide]

- MIC [1, 8]: 0.25 µg/mL (≈ 0.861 µM)
SMILES: NS(=O)(=O)c1nnc(NC(=O)C2CCCCC2)s1 [CAI0022, N-(5-Sulfamoyl-1,3,4-thiadiazol-2-yl)cyclohexanecarboxamide]

- MIC [1, 12]: 4 µg/mL (≈ 14.1 µM)
- MIC [1, 8]: 4 µg/mL (≈ 14.1 µM)
SMILES: NS(=O)(=O)c1nnc(NC(=O)c2ccccc2)s1 [CAI0012, N-(5-Sulfamoyl-1,3,4-thiadiazol-2-yl)benzamide]
- MIC [5]: > 64 µg/mL
- MIC [6]: > 64 µg/mL
- MIC [7]: > 64 µg/mL

- MIC [1, 8]: 0.007 µg/mL (≈ 0.0239 µM)
SMILES: CCCCCCC(=O)Nc1nnc(S(N)(=O)=O)s1 [CAI0027, N-(5-Sulfamoyl-1,3,4-thiadiazol-2-yl)heptanamide]

- MIC [1, 8]: 0.25 µg/mL (≈ 0.946 µM)
SMILES: CC(C)CC(=O)Nc1nnc(S(N)(=O)=O)s1 [CAI0026, 3-Methyl-N-(5-sulfamoyl-1,3,4-thiadiazol-2-yl)butanamide]

- MIC [1, 12]: 1 µg/mL (≈ 2.96 µM)
- MIC [1, 9]: 1 µg/mL (≈ 2.96 µM)
- MIC [1, 10]: 1 µg/mL (≈ 2.96 µM)
- MIC [1, 8]: 1 µg/mL (≈ 2.96 µM)
SMILES: CC(=O)NC[C@H]1CN(c2ccc(N3CCOCC3)c(F)c2)C(=O)O1 [Linezolid]
- MIC [5]: 2 µg/mL (≈ 5.93 µM)
- MIC [6]: ≤ 0.5 µg/mL
- MIC [7]: 1 µg/mL (≈ 2.96 µM)

- MIC [1, 9]: > 128 µg/mL
- MIC [1, 10]: 1 µg/mL (≈ 4.23 µM)
- MIC [1, 11]: > 256 µg/mL
SMILES: CC(=O)/N=c1/sc(S(N)(=O)=O)nn1C [Methazolamide]

- MIC [1, 8]: 0.03 µg/mL (≈ 0.103 µM)
SMILES: NS(=O)(=O)c1nnc(NC(=O)CC2CCCC2)s1 [CAI0021, 2-Cyclopentyl-N-(5-sulfamoyl-1,3,4-thiadiazol-2-yl)acetamide]
